In BindingDB's records for doi:10.1021/jm00018a020 (Centre De Recherche Pierre Fabre, 1995) one finds Ki data, which are given here for 18 molecules.

This assay addresses 5-hydroxytryptamine receptor 1B (Homo sapiens) (UniProt P28222). As to the kind of experiment: Binding affinity for cloned human 5-hydroxytryptamine 1D receptor beta.

Sequence of 5-hydroxytryptamine receptor 1B (Homo sapiens) (P28222 whole entry, looked up): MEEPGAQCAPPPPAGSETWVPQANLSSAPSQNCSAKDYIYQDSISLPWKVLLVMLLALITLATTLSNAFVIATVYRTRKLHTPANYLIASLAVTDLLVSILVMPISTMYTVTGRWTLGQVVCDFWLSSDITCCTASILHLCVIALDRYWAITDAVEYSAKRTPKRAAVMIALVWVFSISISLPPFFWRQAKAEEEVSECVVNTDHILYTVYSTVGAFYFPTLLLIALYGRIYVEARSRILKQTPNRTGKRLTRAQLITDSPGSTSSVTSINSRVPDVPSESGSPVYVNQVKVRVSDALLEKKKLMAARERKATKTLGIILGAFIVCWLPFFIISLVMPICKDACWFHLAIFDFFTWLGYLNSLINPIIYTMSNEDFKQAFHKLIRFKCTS

For the molecule `CN(C)S(=O)(=O)Nc1ccc(N2CCN(C(=O)COc3ccc4[nH]cc(CCN)c4c3)CC2)cc1`, the Ki (as a rule, the dissociation constant of the complex between target and ligand, obtained from inhibition or displacement) was 1.9 nM. That is a single-digit nanomolar value. `N#Cc1ccccc1N1CCN(C(=O)COc2ccc3[nH]cc(CCN)c3c2)CC1` [2-(4-{2-[3-(2-Amino-ethyl)-1H-indol-5-yloxy]-acetyl}-piperazin-1-yl)-benzonitrile]: the Ki was determined as 0.39 nM.

`NCCc1c[nH]c2ccc(OCC(=O)N3CCN(c4ccccc4)CC3)cc12` [2-[3-(2-Amino-ethyl)-1H-indol-5-yloxy]-1-(4-phenyl-piperazin-1-yl)-ethanone] gave a Ki of 0.4 nM. `NCCc1c[nH]c2ccc(OCC(=O)N3CCN(c4ccccc4CN)CC3)cc12` [2-[3-(2-Amino-ethyl)-1H-indol-5-yloxy]-1-[4-(2-aminomethyl-phenyl)-piperazin-1-yl]-ethanone] came in with a Ki of 1.8 nM. The result for `NCCc1c[nH]c2ccc(OCC(=O)N3CCN(c4ccccc4[N+](=O)[O-])CC3)cc12` [2-[3-(2-Amino-ethyl)-1H-indol-5-yloxy]-1-[4-(2-nitro-phenyl)-piperazin-1-yl]-ethanone] reads 0.3 nM. As for `NCCc1c[nH]c2ccc(OCC(=O)N3CCN(c4ccc(N)cc4)CC3)cc12` [2-[3-(2-Amino-ethyl)-1H-indol-5-yloxy]-1-[4-(4-amino-phenyl)-piperazin-1-yl]-ethanone], the figure is 1.6 nM.

The molecule `NCCc1c[nH]c2ccc(OCC(=O)N3CCN(c4ccc(CN)cc4)CC3)cc12` [2-[3-(2-Amino-ethyl)-1H-indol-5-yloxy]-1-[4-(4-aminomethyl-phenyl)-piperazin-1-yl]-ethanone] yielded a Ki of 2.5 nM. Compared with the last molecule, the Ki is about 1.6-fold higher. As for `NCCc1c[nH]c2ccc(OCC(=O)N3CCN(c4ccc([N+](=O)[O-])cc4)CC3)cc12` [2-[3-(2-Amino-ethyl)-1H-indol-5-yloxy]-1-[4-(4-nitro-phenyl)-piperazin-1-yl]-ethanone], the figure is 0.83 nM. As for `NCCc1c[nH]c2ccc(OCCCC(=O)N3CCN(c4ccc([N+](=O)[O-])cc4)CC3)cc12` [4-[3-(2-Amino-ethyl)-1H-indol-5-yloxy]-1-[4-(4-nitro-phenyl)-piperazin-1-yl]-butan-1-one], the figure is 5 nM; as for `NCCc1c[nH]c2ccc(OCCCCC(=O)N3CCN(c4ccc([N+](=O)[O-])cc4)CC3)cc12` [5-[3-(2-Amino-ethyl)-1H-indol-5-yloxy]-1-[4-(4-nitro-phenyl)-piperazin-1-yl]-pentan-1-one], 1.8 nM; as for `NCCc1c[nH]c2ccc(OCCCCCC(=O)N3CCN(c4ccc(N)cc4)CC3)cc12` [6-[3-(2-Amino-ethyl)-1H-indol-5-yloxy]-1-[4-(4-amino-phenyl)-piperazin-1-yl]-hexan-1-one], 0.31 nM.

`NCCc1c[nH]c2ccc(OCCCCCC(=O)N3CCN(c4ccc([N+](=O)[O-])cc4)CC3)cc12` [6-[3-(2-Amino-ethyl)-1H-indol-5-yloxy]-1-[4-(4-nitro-phenyl)-piperazin-1-yl]-hexan-1-one] yielded an inhibitory constant (Ki) of 0.47 nM.

Consider `CN(C)CCc1c[nH]c2ccc(C[C@H]3COC(=O)N3)cc12` [(S)-4-((3-(2-(dimethylamino)ethyl)-1H-indol-5-yl)methyl)oxazolidin-2-one], for which the inhibitory constant (Ki) is 4 nM. For `CS(=O)(=O)NCc1ccccc1N1CCN(C(=O)COc2ccc3[nH]cc(CCN)c3c2)CC1` [N-[2-(4-{2-[3-(2-Amino-ethyl)-1H-indol-5-yloxy]-acetyl}-piperazin-1-yl)-benzyl]-methanesulfonamide], the Ki amounted to 0.53 nM. This Ki is about 7.5-fold lower than that of the molecule before. Consider `CS(=O)(=O)NCc1ccc(N2CCN(C(=O)COc3ccc4[nH]cc(CCN)c4c3)CC2)cc1` [N-[4-(4-{2-[3-(2-Amino-ethyl)-1H-indol-5-yloxy]-acetyl}-piperazin-1-yl)-benzyl]-methanesulfonamide], for which the inhibition constant Ki stood at 2.2 nM. The result for `NCCc1c[nH]c2ccc(OCC(=O)N3CCN(c4ccc(NC(=O)c5ccccc5)cc4)CC3)cc12` [N-[4-(4-{2-[3-(2-Amino-ethyl)-1H-indol-5-yloxy]-acetyl}-piperazin-1-yl)-phenyl]-benzamide] reads 1.3 nM. The result for `CS(=O)(=O)Nc1ccc(N2CCN(C(=O)COc3ccc4[nH]cc(CCN)c4c3)CC2)cc1` [N-[4-(4-{2-[3-(2-Amino-ethyl)-1H-indol-5-yloxy]-acetyl}-piperazin-1-yl)-phenyl]-methanesulfonamide] reads 2.7 nM; that for `CS(=O)(=O)Nc1ccc(N2CCN(C(=O)CCCCCOc3ccc4[nH]cc(CCN)c4c3)CC2)cc1` [N-[4-(4-{6-[3-(2-Amino-ethyl)-1H-indol-5-yloxy]-hexanoyl}-piperazin-1-yl)-phenyl]-methanesulfonamide], 1.4 nM.
